In the supplement of paper PMC10627819:

What was measured:
[1] = test system: B. subtilis 168; test: Bliss interaction score (quartile over a dose matrix) (fitness difference); higher = more antagonism (negative = synergy)
Outline: (§1)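 Fitness was derived from optical density at entry into stationary phase, divided by the robust mean of the no-drug wells on the same plate. That reading was taken as OD595, and the ratio was capped at 1. Single-drug fitness was inferred from the combination data. The Bliss score, observed fitness minus the expected product of single-drug fitness, was summarised as quartiles over technical, biological and donor/recipient replicates.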

[2] = test system: S. aureus DSM 20231; test: as above
Outline: as §1

[3] = test system: S. pneumoniae D39V; test: as above
Outline: as §1

[4] = test system: S. aureus Newman; test: as above
Outline: as §1

[5] = test system: S. pneumoniae D39V; test: fitness (endpoint OD595 vs no drug) (fraction); higher = more growth
Outline: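 Growth medium was TSB, LB Lennox or CY, and plates were kept at 37 °C. Inoculation was at OD595 0.01 in 384-well plates, at 30 µl per well or 55 µl for S. pneumoniae. OD595 was monitored every 30 min for 14 h and background-subtracted using the first reading. Fitness is the optical density on entering stationary phase divided by the robust mean of no-drug controls, with values capped at 1.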
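Wherever Bliss interaction score (quartile over a dose matrix) is given: first quartile when negative (synergy) and third quartile when positive (antagonism).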

CNC(C)C1CCC(N)C(OC2C(N)CC(N)C(OC3OCC(C)(O)C(NC)C3O)C2O)O1 (configuration not stated) [Gentamicin] + CO[C@H]1/C=C/O[C@@]2(C)Oc3c(C)c(O)c4c(O)c(c(/C=N/N5CCN(C)CC5)c(O)c4c3C2=O)NC(=O)/C(C)=C\C=C\[C@H](C)[C@H](O)[C@@H](C)[C@@H](O)[C@@H](C)[C@H](OC(C)=O)[C@@H]1C [Rifampicin]
main component drawn
Conditions	Bliss interaction score
[1]	0.225
[2]	0.0516
[3]	0.083
[4]	0.0286

[5], partner 0.025 µg/mL, main component drawn
Conditions	fitness
first compound 2 µg/mL	≥ 1
first compound 4 µg/mL	≥ 1
first compound 8 µg/mL	0.935

[5], partner 0.2 µg/mL, one replicate, main component drawn
Conditions	fitness
first compound 2 µg/mL	0
first compound 4 µg/mL	0
first compound 8 µg/mL	0

CNC(C)C1CCC(N)C(OC2C(N)CC(N)C(OC3OCC(C)(O)C(NC)C3O)C2O)O1 (configuration not stated) [Gentamicin] + C[C@@H](O)[C@H]1C(=O)N2C(C(=O)O)=C(SCCNC=N)C[C@H]12 [Imipenem]
main component drawn
Conditions	Bliss interaction score
[1]	0.199
[2]	0.0591
[3]	0.0671
[4]	-0.0478

fitness, [5], main component drawn
Conditions	partner 0.005 µg/mL	partner 0.0065 µg/mL	partner 0.01 µg/mL	partner 0.013 µg/mL	partner 0.02 µg/mL	partner 0.026 µg/mL
first compound 2 µg/mL	0.924	0.989	0.915	≥ 1	0.914	0.661
first compound 4 µg/mL	0.928	0.971	0.922	0.996	0.92	0.964
first compound 8 µg/mL	0.895	0.917	0.864	0.931	0.874	0.892

CNC(C)C1CCC(N)C(OC2C(N)CC(N)C(OC3OCC(C)(O)C(NC)C3O)C2O)O1 (configuration not stated) [Gentamicin] + Clc1ccc(COC(Cn2ccnc2)c2ccc(Cl)cc2Cl)c(Cl)c1 [Miconazole]
main component drawn
Conditions	Bliss interaction score
[1]	-0.151
[2]	0.102
[3]	0.0753
[4]	0.0417

fitness, [5], main component drawn
Conditions	partner 1.073 µg/mL	partner 1.25 µg/mL	partner 2.145 µg/mL	partner 2.5 µg/mL	partner 4.29 µg/mL	partner 5 µg/mL
first compound 2 µg/mL	≥ 1	0.915	≥ 1	0.901	0.912	0.905
first compound 4 µg/mL	≥ 1	0.884	0.998	0.893	0.987	0.911
first compound 8 µg/mL	0.996	0.838	≥ 1	0.868	0.913	0.875

CNC(C)C1CCC(N)C(OC2C(N)CC(N)C(OC3OCC(C)(O)C(NC)C3O)C2O)O1 (configuration not stated) [Gentamicin] + O=C1CN(/N=C/c2ccc([N+](=O)[O-])o2)C(=O)N1 [Nitrofurantoin]
main component drawn
Conditions	Bliss interaction score
[1]	-0.138
[2]	-0.0432
[3]	0.0782
[4]	0.0572

fitness, [5], main component drawn
Conditions	partner 1.285 µg/mL	partner 2 µg/mL	partner 2.57 µg/mL	partner 4 µg/mL	partner 8 µg/mL
first compound 2 µg/mL	0.948	0.861	0.951	0.791	0.45
first compound 4 µg/mL	0.943	0.897	0.945	0.747	0.409
first compound 8 µg/mL	0.953	0.831	0.957	0.659	0.368

[5], partner 5.14 µg/mL, one replicate, main component drawn
Conditions	fitness
first compound 2 µg/mL	0.945
first compound 4 µg/mL	0.947
first compound 8 µg/mL	0.918

Clc1ccc(COC(Cn2ccnc2)c2ccc(Cl)cc2Cl)c(Cl)c1 (configuration not stated) [Miconazole] + C/C(=C\C(=O)OCCCCCCCCC(=O)O)C[C@@H]1OC[C@H](C[C@@H]2O[C@H]2[C@@H](C)[C@H](C)O)[C@@H](O)[C@H]1O [Pseudomonic acid]
Conditions	Bliss interaction score
[1]	-0.0459
[2]	0.0125
[3]	0.126
[4]	-0.0143

fitness, [5]
Conditions	first compound 1.073 µg/mL	first compound 1.25 µg/mL	first compound 2.145 µg/mL	first compound 2.5 µg/mL	first compound 4.29 µg/mL	first compound 5 µg/mL
partner 0.03 µg/mL	0.988	0.915	≥ 1	0.894	≥ 1	0.88
partner 0.06 µg/mL	0.914	0.746	0.94	0.754	0.981	0.681
partner 0.12 µg/mL	0.734	0.563	0.759	0.551	–	0.549

Clc1ccc(COC(Cn2ccnc2)c2ccc(Cl)cc2Cl)c(Cl)c1 (configuration not stated) [Miconazole] + CC1=C\[C@@H](O)CC(=O)Cc2nc(co2)C(=O)N2CCC=C2C(=O)O[C@H](C(C)C)[C@H](C)/C=C/C(=O)NC\C=C\1 [Virginiamycin M1]
Conditions	Bliss interaction score
[1]	0.103
[2]	0.0731
[3]	0.0555
[4]	0.0829

fitness, [5]
Conditions	first compound 1.073 µg/mL	first compound 1.25 µg/mL	first compound 2.145 µg/mL	first compound 2.5 µg/mL	first compound 4.29 µg/mL	first compound 5 µg/mL
partner 0.5 µg/mL	≥ 1	–	≥ 1	–	0.882	–
partner 1 µg/mL	≥ 1	–	≥ 1	–	≥ 1	–
partner 2 µg/mL	0.983	0.902	≥ 1	0.903	0.988	0.879

fitness, [5], one replicate
Conditions	partner 0.15 µg/mL	partner 0.3 µg/mL	partner 0.5 µg/mL	partner 1 µg/mL
first compound 1.25 µg/mL	0.949	0.905	≥ 1	≥ 1
first compound 2.5 µg/mL	0.95	0.902	≥ 1	≥ 1
first compound 5 µg/mL	0.906	0.904	0.997	0.891

Clc1ccc(COC(Cn2ccnc2)c2ccc(Cl)cc2Cl)c(Cl)c1 (configuration not stated) [Miconazole] + CCC(C)C1C(=O)NC(=C)C(=O)NC(C(=O)NC(CSCC(C(=O)N1)NC(=O)/C(=C/C)/NC(=O)C(C(C)CC)N)C(=O)NC2C(SCC(NC(=O)CNC(=O)C3CCCN3C2=O)C(=O)NC(CCCCN)C(=O)NC4C(SCC(NC(=O)CNC(=O)C(NC(=O)C(NC(=O)C(NC(=O)CNC4=O)C)CC(C)C)CCSC)C(=O)NC(CC(=O)N)C(=O)NC(CCSC)C(=O)NC(CCCCN)C(=O)NC5C(SCC6C(=O)NC(C(=O)NC(CSC(C(C(=O)N6)NC(=O)C(NC5=O)C)C)C(=O)NC(CO)C(=O)NC(C(C)CC)C(=O)NC(CC7=CN=CN7)C(=O)NC(C(C)C)C(=O)NC(=C)C(=O)NC(CCCCN)C(=O)O)CC8=CN=CN8)C)C)C)CC(C)C [Nisin]
main component drawn
Conditions	Bliss interaction score
[1]	0.0476
[2]	-0.0527
[3]	0.166
[4]	-0.0601

fitness, [5], main component drawn
Conditions	first compound 1.073 µg/mL	first compound 1.25 µg/mL	first compound 2.145 µg/mL	first compound 2.5 µg/mL	first compound 4.29 µg/mL	first compound 5 µg/mL
partner 0.4275 µg/mL	–	0.979	–	0.998	–	0.987
partner 0.855 µg/mL	–	0.973	–	0.965	–	0.977
partner 1.6 µg/mL	0.264	–	0.16	–	0.172	–
partner 1.71 µg/mL	–	0.0702	–	0.146	–	0.119
partner 3.2 µg/mL	0.0113	–	0.0171	–	0.151	–
partner 6.4 µg/mL	0.0029	–	0.0131	–	0.168	–

Clc1ccc(COC(Cn2ccnc2)c2ccc(Cl)cc2Cl)c(Cl)c1 (configuration not stated) [Miconazole] + CCN(CC)CCOC(=O)c1ccc(N)cc1 [Procaine]
Conditions	Bliss interaction score
[1]	0.0691
[2]	0.0418
[3]	0.0592
[4]	-0.0389

fitness, [5]
Conditions	first compound 1.073 µg/mL	first compound 2.145 µg/mL	first compound 4.29 µg/mL
partner 85.5 µg/mL	≥ 1	≥ 1	0.936
partner 171 µg/mL	0.993	0.999	0.899
partner 342 µg/mL	0.997	≥ 1	0.871

fitness, [5], one replicate
Conditions	first compound 1.25 µg/mL	first compound 2.5 µg/mL	first compound 5 µg/mL
partner 85.5 µg/mL	0.983	≥ 1	≥ 1
partner 171 µg/mL	0.971	0.976	0.992
partner 342 µg/mL	0.968	0.992	≥ 1

Clc1ccc(COC(Cn2ccnc2)c2ccc(Cl)cc2Cl)c(Cl)c1 (configuration not stated) [Miconazole] + CN1C2=CC=CC=C2N=C3C1=CC=CC3=O [Pyocyanin]
Conditions	Bliss interaction score
[1]	-0.0752
[2]	0.0453
[3]	0.0535
[4]	0.0548

fitness, [5]
Conditions	first compound 1.073 µg/mL	first compound 2.145 µg/mL	first compound 4.29 µg/mL
partner 0.325 µg/mL	≥ 1	≥ 1	≥ 1
partner 0.65 µg/mL	0.975	1	0.908
partner 1.3 µg/mL	0.787	–	0.729

fitness, [5], one replicate
Conditions	first compound 1.25 µg/mL	first compound 2.5 µg/mL	first compound 5 µg/mL
partner 0.325 µg/mL	0.917	0.916	0.93
partner 0.65 µg/mL	0.963	0.905	0.907
